Data reported in publication PMC11670956, “A cell-based Papain-like Protease (PLpro) activity assay for rapid detection of active SARS-CoV-2 infections and antivirals” (PLOS ONE, 2024).

Molecular target: T1, SARS-CoV-2 Papain-like protease (PLpro) (Severe acute respiratory syndrome coronavirus 2, UniProt P0DTD1)
T1 construct: gene rep; natural full-length PLpro (nsp3) made in infected VeroE6 cells, crude lysate; mature chain nsp3 of replicase polyprotein 1a / 1ab
Assay: fluorogenic Pun74-R110 peptide cleavage in lysates of infected, inhibitor-pretreated VeroE6 cells
Format: biochemical
Details: unreliable (tentative; one experiment in duplicate); inhibitor given to live cells 2 h before infection (0.01 MOI, 24 h, 37 °C); PLpro read in lysate with 50 nM Pun74-R110, 5 mM DTT, pH 7.4, room temp

Cc1ccc(N)cc1C(=O)N[C@H](C)c1cccc2ccccc12 [GRL0617]
IC50: 38.3 µM
